Data: PubChem BioAssay AID1508604 (National Center for Advancing Translational Sciences (NCATS), 2020)

These compounds were tested on CD-1 mouse liver cytosol, LC/MS substrate depletion half-life (assay: NCATS Mouse Liver Cytosol Stability Profiling). Settings: at 1 µM; higher = more stable.
Protocol: Assay submitter (PI): Pranav Shah Ph.D. NIH Center for Advancing Translational Sciences 9800 Medical Center Dr, Rockville MD, 20850 Over the last few decades, chemists have become skilled at designing compounds that avoid cytochrome P (CYP) 450 mediated metabolism. Typical screening assays are performed in liver microsomal fractions and it is possible to overlook the contribution of cytosolic enzymes until much later in the drug discovery process. Few data exist on cytosolic enzyme-mediated metabolism and no reliable tools are available to chemists to help design away from such liabilities. In this study, we screened 1450 compounds for liver cytosol-mediated metabolic stability and extracted transformation rules that might help medicinal chemists in optimizing compounds with these liabilities. […] Matched molecular pairs analysis was performed in conjunction with qualitative-structure activity relationship modeling to identify chemical structure transformations affecting cytosolic stability. The transformation rules were prospectively validated on the test set. In addition, selected rules were validated on a diverse chemical library and the resulting pairs were experimentally tested to confirm whether the identified transformations could be generalized. The validation results, comprising nearly 250 library compounds and corresponding half-life data, are made publicly available. The datasets were also used to generate in silico classification models, based on different molecular descriptors and machine learning methods, to predict cytosol-mediated liabilities. To the best of our knowledge, this is the first systematic in silico effort to address cytosolic enzyme-mediated liabilities (Shah 2020). Reference: Shah, P., Siramshetty, V.B., Zakharov, A.V. et al. Predicting liver cytosol stability of small molecules. J Cheminform 12, 21 (2020). https://doi.org/10.1186/s13321-020-00426-7
Compounds are classified as unstable (t 1/2 < 30 min) or stable (t 1/2 > 30 min). […] Reference: 1. Shah, P. et al. An Automated High-Throughput Metabolic Stability Assay Using an Integrated High-Resolution Accurate Mass Method and Automated Data Analysis Software. Drug Metab Dispos 44, 1653-1661 (2016). PMID 27417180

| SMILES | half-life |
| --- | --- |
| O=C(Nc1ccc(-c2nnc3n2CCCC3)cc1)c1ccc(Cl)cc1 | 1.95 h |
| CN1c2cc(C(=O)Nc3ccc(Cl)c(F)c3)ccc2C(=O)N2CCCCC21 (centres undefined) | 0.524 h |
| Cc1ccc2nc(CO[C@H]3CN(Cc4ccc(Cl)cc4)C[C@H]3F)[nH]c2c1 | > 2 h |
| CCN1c2cc(C(=O)Nc3ccc(Cl)cc3)ccc2C(=O)N2CCCCCC21 (centres undefined) | 0.935 h |
| CN1c2cc(C(=O)Nc3ccc(Cl)cc3)ccc2C(=O)N2CCCCC21 (centres undefined) | 1.39 h |
| O=C1NC2(CCN(C(=O)c3ccc(Cl)c(F)c3)CC2)CC1c1ccccc1 (centres undefined) | 1.43 h |
| COc1cccc(C(=O)NCC2CCCN(Cc3ccc(Cl)cc3)C2)c1OC (centres undefined) | > 2 h |
| OCC1(CN2CCCC2)CCN(Cc2ccc(Cl)c(F)c2)CC1 | 1.21 h |
| CCN1c2cc(C(=O)Nc3ccc(Cl)cc3)ccc2C(=O)N2CCCCC21 (centres undefined) | 0.429 h |
| O=C1OCC2(CCN(Cc3ccc(Cl)cc3)C2)N1CCN1CCOCC1 (centres undefined) | > 2 h |
| CCOc1cc(=O)n2c(c1C(=O)Nc1ccc(Cl)cc1)CCCC2 | 1.57 h |
| Cc1cccc(-c2noc([C@@H]3C[C@@H](O)CN3Cc3ccc(Cl)cc3)n2)c1 | 0.394 h |
| COCC1CN(Cc2ccc(Cl)c(F)c2)CC12CCNCC2 (centres undefined) | > 2 h |
| CCN1c2cc(C(=O)Nc3ccc(Cl)c(F)c3)ccc2C(=O)N2CCCCC21 (centres undefined) | 0.412 h |
| CN(C1CCOCC1)C1CCN(C(=O)c2ccc(Cl)cc2)CC1 | > 2 h |
| CN(Cc1cccnc1)c1nc2c(c(=O)[nH]1)CCN(Cc1ccc(Cl)cc1)CC2 | 1.24 h |
| O=C1[C@H]2CN(Cc3ccc(Cl)c(F)c3)C[C@H]2C(=O)N1CCc1ccccc1 | 0.621 h |
| COc1cccc(C(=O)NCC2CCCN(Cc3ccn[nH]3)C2)c1OC (centres undefined) | > 2 h |
| COCC1CN(Cc2ccc(Cl)cc2)CC12CCNCC2 (centres undefined) | > 2 h |
| O=c1[nH]c(N2CCOCC2)nc2c1CCN(Cc1ccc(Cl)cc1)CC2 | > 2 h |
| Cc1noc(-c2nc(-c3ccc(Cl)cc3)no2)n1 | 0.26 h |
| COCC1CN(C(C)=O)CC12CCN(Cc1ccc(Cl)cc1)CC2 (centres undefined) | > 2 h |
| O=C(Nc1cccc(-c2nnc3n2CCCC3)c1)c1ccn[nH]1 | > 2 h |
| Cn1c([C@H]2CCN(Cc3ccc(Cl)cc3)C2)nc2ccccc21 | > 2 h |
| CCN1c2cc(C(=O)Nc3ccc(Cl)c(F)c3)ccc2C(=O)N2CCCCCC21 (centres undefined) | 0.904 h |

| SMILES | half-life |
| --- | --- |
| CN1c2cc(C(=O)Nc3ccc(Cl)c(F)c3)ccc2C(=O)N2CCCCCC21 (centres undefined) | 0.383 h |
| CN(C)c1nc2c(c(=O)[nH]1)CCN(Cc1ccc(Cl)cc1)CC2 | 1.91 h |
| O=C1[C@H]2CN(Cc3ccc(Cl)cc3)C[C@H]2C(=O)N1Cc1ccc2c(c1)OCO2 | 1.11 h |
| COc1cc(=O)n2c(c1C(=O)Nc1ccc(Cl)cc1)CCCC2 | > 2 h |
| COCC1CN(C(C)=O)CC12CCN(Cc1ccc(Cl)c(F)c1)CC2 (centres undefined) | 1.36 h |
| CN1C(=O)CO[C@H]2CN(Cc3ccc(Cl)cc3)C[C@H]21 | 1.94 h |
| CN1CCN(c2nc3c(c(=O)[nH]2)CCN(Cc2ccc(Cl)cc2)CC3)CC1 | > 2 h |
| CN1c2cc(C(=O)Nc3ccc(Cl)cc3)ccc2C(=O)N2CCCCCC21 (centres undefined) | 1.06 h |
| Cc1ccc(-c2ccc3nnc(CNC(=O)c4ccc(Cl)cc4)n3n2)cc1 | > 2 h |
| CN1CCN(c2nc3c(c(=O)[nH]2)CCN(Cc2ccc(Cl)c(F)c2)CC3)CC1 | > 2 h |
| FC(F)(F)c1ccc2nc([C@H]3CCN(Cc4ccc(Cl)cc4)C3)[nH]c2c1 | 0.945 h |
| O=C(Nc1cccc(-c2nnc3n2CCCC3)c1)c1ccc(Cl)cc1 | 0.941 h |
| O=C1NC2(CCN(C(=O)c3ccc(Cl)cc3)CC2)CC1c1ccccc1 (centres undefined) | > 2 h |
| O=C1OCC2(CCN(Cc3ccn[nH]3)C2)N1CCN1CCOCC1 (centres undefined) | > 2 h |
| O=C(Nc1ccc(-c2nnc3n2CCCC3)cc1)c1ccn[nH]1 | > 2 h |
| O=C1[C@H]2CN(Cc3ccc(Cl)cc3)C[C@H]2C(=O)N1CCc1ccccc1 | 0.792 h |
| OCC1(CN2CCCC2)CCN(Cc2ccc(Cl)cc2)CC1 | 0.908 h |
| O=C1[C@H]2CN(Cc3ccc(Cl)c(F)c3)C[C@H]2C(=O)N1Cc1ccc2c(c1)OCO2 | 0.921 h |
| CN(C1CCOCC1)C1CCN(C(=O)c2ccn[nH]2)CC1 | > 2 h |
| COc1cc(=O)n2c(c1C(=O)Nc1ccc(Cl)c(F)c1)CCCC2 | 1.47 h |
| O=c1[nH]c(N2CCOCC2)nc2c1CCN(Cc1ccc(Cl)c(F)c1)CC2 | 1.54 h |
| COc1ccc(CN2C[C@H]3CN(Cc4ccc(Cl)cc4)CCN3C2=O)cc1 | 1.37 h |
| CN(C)c1nc2c(c(=O)[nH]1)CCN(Cc1ccc(Cl)c(F)c1)CC2 | > 2 h |
| CCOc1cc(=O)n2c(c1C(=O)Nc1ccc(Cl)c(F)c1)CCCC2 | 1.34 h |
